The values that follow come from patent US7211566B2 (Universite De Sherbrooke, priority 2003, dated 2007).

Ends that are not written are not given here. A value given as a limit tells only on which side of the number the result lay.

Data set [1] deals with T1, BKB1 receptor (Oryctolagus cuniculus, UniProt P48748).
T1 construct: The rabbit aorta without endothelium (which contains only the BKB1 receptor); from tissue; host or cells: isolated rabbit aorta (rbA) without endothelium
T1 sequence (P48748 1-352): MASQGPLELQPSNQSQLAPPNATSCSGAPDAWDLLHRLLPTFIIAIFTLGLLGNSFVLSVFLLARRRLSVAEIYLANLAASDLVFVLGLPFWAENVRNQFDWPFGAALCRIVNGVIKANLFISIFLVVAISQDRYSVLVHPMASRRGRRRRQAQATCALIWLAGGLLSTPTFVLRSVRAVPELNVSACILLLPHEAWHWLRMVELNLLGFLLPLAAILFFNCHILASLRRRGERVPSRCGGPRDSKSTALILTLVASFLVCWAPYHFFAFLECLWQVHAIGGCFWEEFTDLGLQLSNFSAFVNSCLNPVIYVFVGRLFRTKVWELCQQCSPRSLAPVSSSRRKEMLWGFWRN
The data set is described as follows: Isolated rabbit aorta (rbA) organ bath, antagonist potency pA2. The class given is cell-based. The following applies: rabbit aorta without endothelium; mean ± SEM of 4–7 experiments. As to the method: (§1) Selected antagonists were tested for activities in three isolated organs: (1) the rabbit aorta (rbA), (2) the human umbilical vein (hUV) and (3) the rabbit jugular vein (rbJV).
(§2) All details regarding the procurements of human umbilical cords and rabbit vessels as well as, the procedures for preparing the isolated organs and the experimental protocols are described in these respective publications: rbA (Rioux et al. 1973, Can J Physiol Pharmacol 51, 114–121); hUV (Gobeil et al. 1996, Br J Pharmacol 118, 289–294), and rbJV (Gaudreau et al. 1981, Can J Physiol Pharmacol 59, 371–379).
The rabbit aorta without endothelium (which contains only the BKB1 receptor) was used to determine the antagonistic activities of each compound.
(§3) The rabbit jugular vein (a pure BKB2 receptor system) was used to exclude any action of the new compounds on the BKB2 receptor and thus establish their selectivity. All tissues were treated with captopril (1 μM) to prevent the degradation of the peptidic agonists.
(§4) Repeated applications of a single and double concentration of BK (on rbJV,) or of desArg^9BK (rbA and hUV) were made in the absence and in presence of the various peptides to evaluate their apparent affinities as antagonists, in terms of pA2 (-log10 of the molar concentration of antagonist that reduces the effect of a double concentration of agonist to that of a single one) (Schild 1947, Br J Pharmacol 2, 189–206).

The next data set deals with T2, BKB2 receptor (Oryctolagus cuniculus, UniProt Q28642).
T2 construct: The rabbit jugular vein (a pure BKB2 receptor system); from tissue; host or cells: isolated rabbit jugular vein (rbJV)
T2 sequence (Q28642 1-367): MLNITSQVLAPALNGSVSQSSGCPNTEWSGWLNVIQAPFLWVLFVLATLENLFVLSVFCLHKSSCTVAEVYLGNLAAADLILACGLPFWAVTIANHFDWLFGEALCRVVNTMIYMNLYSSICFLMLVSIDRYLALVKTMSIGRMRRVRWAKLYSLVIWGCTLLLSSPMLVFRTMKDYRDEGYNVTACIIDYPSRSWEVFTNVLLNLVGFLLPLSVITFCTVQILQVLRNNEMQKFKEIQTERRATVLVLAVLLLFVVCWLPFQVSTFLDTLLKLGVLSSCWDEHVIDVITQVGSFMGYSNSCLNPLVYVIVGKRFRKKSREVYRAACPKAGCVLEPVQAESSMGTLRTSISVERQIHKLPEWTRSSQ
Nature of the data set: Isolated rabbit jugular vein (rbJV) organ bath, antagonist potency pA2. The following applies: BK as agonist. Type of data set: cell-based. As to the method: as §1, §2, §3, §4

In data set [2] the target is T3, BKB1 receptor (Homo sapiens, UniProt P46663).
T3 sequence (P46663 1-353): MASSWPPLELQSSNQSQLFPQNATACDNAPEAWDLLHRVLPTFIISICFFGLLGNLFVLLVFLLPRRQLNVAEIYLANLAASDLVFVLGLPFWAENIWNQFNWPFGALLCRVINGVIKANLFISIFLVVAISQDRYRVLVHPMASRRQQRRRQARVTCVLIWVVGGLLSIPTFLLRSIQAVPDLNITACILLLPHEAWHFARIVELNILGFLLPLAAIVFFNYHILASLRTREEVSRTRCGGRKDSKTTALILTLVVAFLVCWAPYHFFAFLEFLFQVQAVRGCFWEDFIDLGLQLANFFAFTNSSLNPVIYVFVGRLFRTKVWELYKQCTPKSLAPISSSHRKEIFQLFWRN
The data set is described as follows: Isolated human umbilical vein (hUV) organ bath, antagonist potency pA2. Type of data set: cell-based. The arrangement: the hUV that contains BKB1 and BKB2 receptors; from tissue; host or cells: isolated human umbilical vein (hUV). As for the experimental part:
as §1, §2, §3, §4

The next data set deals with T4, aminopeptidase M (AmM) (Homo sapiens, UniProt P15144).
T4 construct: incubated for 60 min with 50 μl of human plasma; from tissue; host or cells: human plasma from heparinized blood of healthy male volunteers
Nature of the data set: In vitro metabolic stability against human plasma AmM. Type of data set: in vitro ADME. The following applies: male, human plasma as source of aminopeptidase M, pH 7.5, peptide 200 μM, 60 min incubation, mean ± SEM of 3, read-out: Peptide metabolism (%) Human plasma AmM. As for the experimental part:
(§5) These assays were performed using three enzyme preparations: purified angiotensin converting enzyme (ACE; from rabbit lung), human plasma as a, source of aminopeptidase M (AmM) and human platelets as a source of aminopeptidase P (AmP).
Human plasma AmM was prepared as previously described (Gobeil et al., 1999, Hypertension, 33, 823–829). Blood (5 ml) was withdrawn from healthy normotensive male Caucasian volunteers and put into heparinized tube (200 U). Blood samples were centrifuged at 1500 rpm for 15 min in a refrigerated tabletop centrifuge. The peptide antagonists (200 μM) were placed in a PBS buffer (50 mM, pH 7.5, containing 300 mM NaCl) and incubated for 60 min with 50 μl of human plasma (total volume of the medium, 375 μl). Immersing samples into boiling water and then cooling them on ice stopped the hydrolysis reaction. Control experiments have shown that ≈70% of the kininase activity that is present in the human plasma is abolished by amastatin (1 μM) and that the incubation of Lys-[Leu^8]desArg^9BK with this enzymatic preparation led to the production of [Leu^8]desArg^9BK as detected by electrospray mass spectrometry.

The target in data set [3] is T5, angiotensin converting enzyme (ACE) (Oryctolagus cuniculus, UniProt P12822).
T5 construct: In Vitro Biochemical Stability Assays Against Purified Native Enzymes; purchased Sigma, St. Louis, Mo; host or cells: rabbit lung
T5 sequence (P12822 34-1310): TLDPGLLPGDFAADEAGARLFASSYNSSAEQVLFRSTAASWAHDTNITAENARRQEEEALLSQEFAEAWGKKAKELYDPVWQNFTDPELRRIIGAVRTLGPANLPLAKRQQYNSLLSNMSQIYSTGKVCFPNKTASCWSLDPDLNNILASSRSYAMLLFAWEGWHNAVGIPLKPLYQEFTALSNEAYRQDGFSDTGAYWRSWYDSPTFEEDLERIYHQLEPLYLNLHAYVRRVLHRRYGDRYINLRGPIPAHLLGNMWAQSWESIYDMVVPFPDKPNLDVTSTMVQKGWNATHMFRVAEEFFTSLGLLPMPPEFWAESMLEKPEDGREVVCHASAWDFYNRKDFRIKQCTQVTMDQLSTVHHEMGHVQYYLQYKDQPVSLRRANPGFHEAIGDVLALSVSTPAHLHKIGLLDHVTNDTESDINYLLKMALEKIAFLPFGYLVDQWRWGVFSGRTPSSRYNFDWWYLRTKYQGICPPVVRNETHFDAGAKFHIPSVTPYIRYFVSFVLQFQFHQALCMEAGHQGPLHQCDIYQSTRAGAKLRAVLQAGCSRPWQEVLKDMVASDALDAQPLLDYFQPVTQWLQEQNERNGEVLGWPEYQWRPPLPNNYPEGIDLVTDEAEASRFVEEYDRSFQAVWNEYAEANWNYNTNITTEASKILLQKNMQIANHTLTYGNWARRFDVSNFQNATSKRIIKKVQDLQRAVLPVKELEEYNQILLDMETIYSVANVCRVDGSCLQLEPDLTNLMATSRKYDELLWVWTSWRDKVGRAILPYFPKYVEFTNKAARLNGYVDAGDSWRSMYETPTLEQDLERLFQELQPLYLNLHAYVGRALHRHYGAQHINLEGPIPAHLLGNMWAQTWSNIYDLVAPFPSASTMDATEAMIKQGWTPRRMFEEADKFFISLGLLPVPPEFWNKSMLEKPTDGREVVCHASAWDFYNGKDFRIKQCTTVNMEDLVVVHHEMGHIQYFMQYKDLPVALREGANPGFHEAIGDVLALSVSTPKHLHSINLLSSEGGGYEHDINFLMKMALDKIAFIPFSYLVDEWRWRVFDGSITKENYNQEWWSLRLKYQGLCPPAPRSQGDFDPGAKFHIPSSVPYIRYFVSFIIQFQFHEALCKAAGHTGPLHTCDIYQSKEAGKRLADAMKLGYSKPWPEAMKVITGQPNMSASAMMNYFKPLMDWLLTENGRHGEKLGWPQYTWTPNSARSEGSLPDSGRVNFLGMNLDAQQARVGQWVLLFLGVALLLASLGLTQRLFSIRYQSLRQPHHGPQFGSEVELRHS
Nature of the data set: In vitro metabolic stability against purified rabbit lung ACE. Type of data set: in vitro ADME. The following applies: purified angiotensin converting enzyme from rabbit lung, pH 7.5, peptide 200 μM, 60 min at 37° C., mean ± SEM of 3, read-out: Peptide metabolism (%) Rabbit lung ACE. As for the experimental part: as §5
Purified ACE from rabbit lungs (Sigma, St. Louis, Mo.) was dissolved in PBS (50 mM, pH 7.5, containing 300 mM NaCl and 10 μM ZnCl2; the final concentration of ACE was 45 μg/ml). Each of the peptide antagonists (200 μM) was incubated for 60 min at 37° C. with ACE (8.5 μl) (total volume medium, 187.5 μl). The enzymatic reaction was then terminated by boiling.
The experimental protocol for the measurement of ACE activity has been described elsewhere (Drapeau et a). 1993, J Pharmacol Exp Ther 266, 192–198; Gobeil et al., 1996, supra).

The target of another data set is T6, aminopeptidase P (AmP) (Homo sapiens, UniProt Q9NQW7).
T6 construct: from tissue; host or cells: human platelets, freeze-thawed and sonicated, 43 000 x g supernatant
The data set is described as follows: In vitro metabolic stability against human platelets AmP. Type of data set: in vitro ADME. The following applies: mean ± SEM of 3 experiments. As to the method: as §5
Human platelet AmP was prepared as described by Maggiora et al. (1999, J Med Chem 42, 2394–2402). Human platelets (40 ml) were centrifuged at 250×g for 7 min at room temperature. The resulting supernatant was recentrifuged at 2790×g for 15 min at room temperature. Pellets were collected, resuspended in 40 ml of phosphate-buffered saline (PBS) containing 3.5% of sodium citrate, and then re-centrifuged at 2790×g for 15 min at room temperature. This washing step was repeated. Pellets were resuspended in 4 ml of PBS-sodium citrate, snap-frozen in liquid nitrogen, thawed at 37° C., sonicated briefly, and then centrifuged at 43 000×g for 2 h at 4° C. (Sorvall RC 5B, ss-34 rotor). The resulting supernatant was used for enzyme assays as described in Neugebauer et al. (Neugebauer et al. 2002, supra).

In data set [4] the test system is carboxypeptidases of the M type (CPM). The following applies: cited from earlier work.
The test system of data set [5] is carboxypeptidases of the N type (CPN). The following applies: cited from earlier work.
Data set [6] in a line: human plasma as a source of aminopeptidase M (AmM). The following applies: up to 60 min.
Data set [7] deals with angiotensin converting enzyme (ACE). The data set is described as follows: Purified ACE from rabbit lungs (Sigma, St. Louis, Mo.) dissolved in PBS (50 mM, pH 7.5, containing 300 mM NaCl and 10 μM ZnCl2). The following applies: 37° C., up to 60 min.

T4 sequence (P15144 whole entry): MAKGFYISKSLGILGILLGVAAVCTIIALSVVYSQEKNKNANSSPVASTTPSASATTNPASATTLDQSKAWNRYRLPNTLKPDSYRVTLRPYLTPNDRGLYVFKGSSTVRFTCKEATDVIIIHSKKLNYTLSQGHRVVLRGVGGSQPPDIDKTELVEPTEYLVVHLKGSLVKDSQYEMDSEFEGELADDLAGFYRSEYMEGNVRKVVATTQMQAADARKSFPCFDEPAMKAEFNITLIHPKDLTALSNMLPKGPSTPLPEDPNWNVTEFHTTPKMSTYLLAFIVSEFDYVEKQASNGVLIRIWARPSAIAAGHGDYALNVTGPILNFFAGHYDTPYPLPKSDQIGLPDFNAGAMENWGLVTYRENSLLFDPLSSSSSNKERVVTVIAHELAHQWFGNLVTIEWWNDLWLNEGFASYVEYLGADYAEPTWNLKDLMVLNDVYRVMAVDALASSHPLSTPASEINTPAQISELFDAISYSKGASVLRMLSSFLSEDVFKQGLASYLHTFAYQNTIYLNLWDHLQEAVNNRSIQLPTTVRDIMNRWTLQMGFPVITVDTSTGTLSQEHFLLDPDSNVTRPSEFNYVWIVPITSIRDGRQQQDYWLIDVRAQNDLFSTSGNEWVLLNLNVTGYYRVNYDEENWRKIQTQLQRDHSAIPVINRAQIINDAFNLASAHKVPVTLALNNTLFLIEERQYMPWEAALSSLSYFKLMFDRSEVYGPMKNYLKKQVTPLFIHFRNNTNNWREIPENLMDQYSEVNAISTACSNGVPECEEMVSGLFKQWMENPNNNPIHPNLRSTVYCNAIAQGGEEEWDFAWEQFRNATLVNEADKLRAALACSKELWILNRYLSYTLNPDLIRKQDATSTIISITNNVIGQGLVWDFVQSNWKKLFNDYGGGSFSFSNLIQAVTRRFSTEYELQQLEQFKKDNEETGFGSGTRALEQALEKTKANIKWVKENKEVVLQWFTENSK
T6 sequence (Q9NQW7 whole entry): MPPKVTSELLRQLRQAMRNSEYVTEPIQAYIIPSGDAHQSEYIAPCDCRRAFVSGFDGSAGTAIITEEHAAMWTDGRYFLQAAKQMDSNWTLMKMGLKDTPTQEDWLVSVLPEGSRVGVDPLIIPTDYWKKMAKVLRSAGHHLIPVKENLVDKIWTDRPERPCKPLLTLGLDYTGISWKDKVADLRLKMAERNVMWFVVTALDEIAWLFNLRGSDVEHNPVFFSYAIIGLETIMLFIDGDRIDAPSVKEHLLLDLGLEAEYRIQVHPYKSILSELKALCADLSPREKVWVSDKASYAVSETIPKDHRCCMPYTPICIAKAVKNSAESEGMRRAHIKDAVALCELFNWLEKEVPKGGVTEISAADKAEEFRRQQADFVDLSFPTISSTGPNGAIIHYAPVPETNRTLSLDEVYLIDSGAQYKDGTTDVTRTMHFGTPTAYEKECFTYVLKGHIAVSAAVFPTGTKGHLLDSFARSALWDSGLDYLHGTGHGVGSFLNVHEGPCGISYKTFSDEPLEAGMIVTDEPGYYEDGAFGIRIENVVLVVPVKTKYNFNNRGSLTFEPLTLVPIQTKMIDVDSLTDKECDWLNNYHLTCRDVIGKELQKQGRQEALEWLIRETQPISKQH

Take “Ac-Orn[Oic^2,Oic^3(α-Me)Phe^5,D-βNal^7,Ile^8]desArg^9BK”: the “Antagonist potencies (pA2) BKB1-R rbA” value on BKB1 receptor [1] stood at 8.30 ± 0.08. The “Antagonist potencies (pA2) BKB2-R rbJV” value on BKB2 receptor is recorded as below 6.00.

Regarding “Ac-Lys-[D-βNal^7, Ile^8] desArg^9BK [Ac-Lys-[D-βNal^7, Ile^8]desArg^9-BK, reference compound]”, the “Antagonist potencies (pA2) BKB1-R rbA” value at BKB1 receptor [1] worked out at 8.40 ± 0.12. Also, the “Antagonist potencies (pA2) BKB2-R rbJV” value at BKB2 receptor is below 6.00. Besides, on BKB1 receptor [2] (human umbilical vein treated with HOE 140, mean ± SEM of 4–7 experiments), the “Antagonist potencies (pA2) BKB1-R hUV” value came out at 8.49 ± 0.10.

On to `CC(C)C[C@H](NC(=O)[C@@H]1CCCN1C(=O)[C@H](CO)NC(=O)[C@H](Cc1ccccc1)NC(=O)CNC(=O)[C@@H]1CCCN1C(=O)[C@@H]1CCCN1C(=O)[C@H](CCCN=C(N)N)NC(=O)[C@@H](N)CCCCN)C(=O)O` [Lys-[Leu^8]desArg^9-BK, Lys-[Leu^8] desArg^9BK, reference compound], for which the metabolised at 1 h, 200 µM was found to be 100% at aminopeptidase M (AmM) and 93 ± 3% in data set [3]. In addition, the “Peptide metabolism (%) Human platelets AmP” value at aminopeptidase P (AmP) is recorded as 99 ± 1%. Moreover, at BKB1 receptor [2] (BKB1 receptor antagonist affinity, effect of N-terminal Lys), the “affinity higher than that of [Leu^8]desArg^9BK” value is “at least 1.5 log units”.

In the case of RPPGFSPFR, the cleaved bond entry in data set [4] and in data set [5] was “Phe8-Arg9” each time.

With “Ac-Lys[Oic^2,(α-Me)Phe^5,D-βNal^7,Ile^8]desArg^9BK”, the not cleaved entry in data set [6] and in [7] was “Peptide metabolism 0 % (60 min)” in each case.

Consider Lys-[Leu^8] desArg^9BK, for which, in data set [6], the fragment found result is “[Leu^8]desArg^9BK”. For the same compound, in [7], the cleaved bond result was “Phe5-Ser6”.
